Structures are written as SMILES. Where only a bound is given, the exact number is not on record here.

The values below come from patent publication US10995091B2 (Proximagen, LLC, priority 2010, dated 2021).

The target in the assay is T1, Human CXCR4 transfected HEK293 cells (Homo sapiens, UniProt P61073).
T1 construct: expressed in transfected cells; host or cells: HEK293
T1 sequence (P61073 whole entry): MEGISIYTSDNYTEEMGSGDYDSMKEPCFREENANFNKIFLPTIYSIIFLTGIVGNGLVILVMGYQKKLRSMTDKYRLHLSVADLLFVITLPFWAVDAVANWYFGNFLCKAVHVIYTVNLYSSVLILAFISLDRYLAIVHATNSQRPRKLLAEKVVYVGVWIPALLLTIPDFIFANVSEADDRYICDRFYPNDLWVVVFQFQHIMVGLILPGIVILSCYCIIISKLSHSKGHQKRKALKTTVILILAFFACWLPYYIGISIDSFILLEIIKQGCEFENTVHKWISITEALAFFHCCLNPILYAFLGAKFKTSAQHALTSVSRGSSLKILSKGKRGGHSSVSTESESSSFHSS
Description: CXCR4 functional calcium assay (calcium flux FLIPR, antagonism of SDF1 response). It counts as cell-based. The note with it: CXCR4 functional activity, antagonism of SDF1 (EC50 concentration), read-out: CXCR4 fKi. As to the method: The functional activity of test compounds was routinely tested by measuring the ability of compounds to antagonize CXCR4 activity in a dose dependent manner, using a calcium flux Fluorescent Imaging Plate Reader FLIPR assay.
Human CXCR4 transfected HEK293 cells were cultured in Dulbecco's modified Eagles medium containing 4.5 g/L glucose, L-glutamine, pyruvate, 50 µg/mL Geneticin and 250 µg/mL hygromycin B and maintained at 37° C. in a humidified, 5% CO2 controlled atmosphere. Subcultivations were performed every 2-3 d.
At confluence the cells were lifted using Ca^2+ and Mg^2+ free PBS/0.02% (w/v) EDTA, spun at 1000 rpm for 3 min and resuspended at 2.5×10^5 cells/mL. Cells were plated into a 384 well, poly-d-lysine coated, black with clear bottomed plate (Becton Dickinson) at 7500 cells/well. The plates were incubated overnight at 37° C. under 5% CO2. On the day of the experiment the cells were washed with incubation Buffer (HBSS containing 2.5 mM probenecid, 0.1% w/v BSA and 10 mM HEPES, pH 7.4 at 37° C.). After washing, the cells were loaded with Fluo-4 AM dye (Molecular probes) at 2 µM containing 0.48 µg/mL pluronic acid for 60 min at 37° C. under 5% CO2. After thorough washing with incubation buffer the cells were preincubated for 10 min at 37° C. before use.
A combined agonist/antagonist protocol was used to measure changes in intracellular calcium concentration. Compound (antagonist) was added to the cell plate using a Fluorometric Imaging Plate Reader (FLIPR) (Molecular Devices, Sunnyvale, Calif., USA). Basal fluorescence was recorded every second for 10 seconds prior to compound addition (10 μl) and fluorescence recorded every second for 1 min then every 6 seconds for a further 1 min. SDF1[…] (EC50 concentration) was then added using the FLIPR and fluorescence recorded as described above. Curve-fitting and parameter estimation were carried out using GraphPad Prism 4.0 (GraphPad Software Inc., San Diego, Calif.).
In general terms: Calcium assays in cells follow changes in intracellular calcium, usually with a dye or a luminescent sensor.
Turning to `O=C(NCC1CCOCC1)c1cccc(N2CCCN(C3CCN(Cc4ccccc4Cl)CC3)CC2)n1` [Example 47, 6-(4-{1-[(2-Chlorophenyl)methyl]piperidin-4-yl}-1,4-diazepan-1-yl)-N-(oxan-4-ylmethyl)pyridine-2-carboxamide], the Ki is below 0.02 µM. `O=C(NCC(F)(F)F)c1cccc(N2CCCN(C3CCN(Cc4ccccc4Cl)CC3)CC2)n1` [Example 48, 6-(4-{1-[(2-Chlorophenyl)methyl]piperidin-4-yl}-1,4-diazepan-1-yl)-N-(2,2,2-trifluoroethyl)pyridine-2-carboxamide]: the Ki was in the range of 0.1 to 0.5 µM. With `CC(C)CCNC(=O)c1cccc(N2CCCN(C3CCN(Cc4ccccc4Cl)CC3)CC2)n1` [Example 49, 6-(4-{1-[(2-Chlorophenyl)methyl]piperidin-4-yl}-1,4-diazepan-1-yl)-N-(3-methylbutyl)pyridine-2-carboxamide] the figure was 0.1 to 0.5 µM. Regarding `COCCNC(=O)c1cccc(N2CCCN(C3CCN(Cc4ccccc4Cl)CC3)CC2)n1` [Example 50, 6-(4-{1-[(2-Chlorophenyl)methyl]piperidin-4-yl}-1,4-diazepan-1-yl)-N-(2-methoxyethyl)pyridine-2-carboxamide], the Ki is 0.1 to 0.5 µM.

In the case of `O=C(NC[C@H]1CCCO1)c1cccc(N2CCCN(C3CCN(Cc4ccccc4Cl)CC3)CC2)n1` [Example 51, 6-(4-{1-[(2-Chlorophenyl)methyl]piperidin-4-yl}-1,4-diazepan-1-yl)-N-[(2R)-oxolan-2-ylmethyl]pyridine-2-carboxamide], the Ki was 0.02 to 0.1 µM.

As to `O=C(NC1CCOCC1)c1cccc(N2CCCN(C3CCN(Cc4ccccc4Cl)CC3)CC2)n1` [Example 52, 6-(4-{1-[(2-Chlorophenyl)methyl]piperidin-4-yl}-1,4-diazepan-1-yl)-N-(oxan-4-yl)pyridine-2-carboxamide], the Ki is 0.02 to 0.1 µM. For the molecule `O=C(Nc1cccnc1)c1cccc(N2CCCN(C3CCN(Cc4ccccc4Cl)CC3)CC2)n1` [Example 53], the Ki lay in the range of 0.02 to 0.1 µM.

As for `O=C(Nc1ccncc1)c1cccc(N2CCCN(C3CCN(Cc4ccccc4Cl)CC3)CC2)n1` [Example 54, 6-(4-{1-[(2-Chlorophenyl)methyl]piperidin-4-yl}-1,4-diazepan-1-yl)-N-(pyridine-4-yl)pyridine-2-carboxamide], the Ki was below 0.02 µM.

As for `O=C(NCc1cccnc1)c1cccc(N2CCCN(C3CCN(Cc4ccccc4Cl)CC3)CC2)n1` [Example 55, 6-(4-{1-[(2-Chlorophenyl)methyl]piperidin-4-yl}-1,4-diazepan-1-yl)-N-(pyridine-3-ylmethyl)pyridine-2-carboxamide], the Ki is 0.02 to 0.1 µM.

Turning to `O=C(NCc1ccncc1)c1cccc(N2CCCN(C3CCN(Cc4ccccc4Cl)CC3)CC2)n1` [Example 56, 6-(4-{1-[(2-Chlorophenyl)methyl]piperidin-4-yl}-1,4-diazepan-1-yl)-N-(pyridine-4-ylmethyl)pyridine-2-carboxamide], the Ki is below 0.02 µM.

For the molecule `O=C(NCc1ncco1)c1cccc(N2CCCN(C3CCN(Cc4ccccc4Cl)CC3)CC2)n1` [Example 57, 6-(4-{1-[(2-Chlorophenyl)methyl]piperidin-4-yl}-1,4-diazepan-1-yl)-N-(1,3-oxazol-2-ylmethyl)pyridine-2-carboxamide], the Ki was 0.02 to 0.1 µM. On to `O=C(NCc1cocn1)c1cccc(N2CCCN(C3CCN(Cc4ccccc4Cl)CC3)CC2)n1` [Example 58, 6-(4-{1-[(2-Chlorophenyl)methyl]piperidin-4-yl}-1,4-diazepan-1-yl)-N-(1,3-oxazol-4-ylmethyl)pyridine-2-carboxamide], for which the Ki fell in the range of 0.1 to 0.5 µM.

Turning to `O=C(NCC1CC1)c1cccc(N2CCCN(C3CCN(C(CF)CF)CC3)CC2)n1` [Example 59, N-(Cyclopropylmethyl)-6-{4-[1-(1,3-difluoropropan-2-yl)piperidin-4-yl]-1,4-diazepan-1-yl}pyridine-2-carboxamide], the Ki fell in the range of 0.1 to 0.5 µM.

Regarding `CCN1CCC(N2CCCN(c3cccc(C(=O)NCC4CC4)n3)CC2)CC1` [Example 60, N-(Cyclopropylmethyl)-6-[4-(1-ethylpiperidin-4-yl)-1,4-diazepan-1-yl]pyridine-2-carboxamide], the Ki was in the range of 0.5 to 1 µM. With `CCCN1CCC(N2CCCN(c3cccc(C(=O)NCC4CC4)n3)CC2)CC1` [Example 61, N-(Cyclopropylmethyl)-6-[4-(1-propylpiperidin-4-yl)-1,4-diazepan-1-yl]pyridine-2-carboxamide] the figure was 0.1 to 0.5 µM. With `O=C(NCC1CC1)c1cccc(N2CCCN(C3CCN(C4CC4)CC3)CC2)n1` [Example 62, N-(Cyclopropylmethyl)-6-[4-(1-cyclopropylpiperidin-4-yl)-1,4-diazepan-1-yl]pyridine-2-carboxamide] the figure was 0.5 to 1 µM. With `CC(C)N1CCC(N2CCCN(c3cccc(C(=O)NCC4CC4)n3)CC2)CC1` [Example 63, N-(Cyclopropylmethyl)-6-{4-[1-(propan-2-yl)piperidin-4-yl]-1,4-diazepan-1-yl}pyridine-2-carboxamide] the figure was below 0.02 µM. With `CC(C)(C)N1CCC(N2CCCN(c3cccc(C(=O)NCC4CC4)n3)CC2)CC1` [Example 64, 6-[4-(1-tert-Butylpiperidin-4-yl)-1,4-diazepan-1-yl]-N-(cyclopropylmethyl)pyridine-2-carboxamide], the Ki fell in the range of 0.02 to 0.1 µM. With `CCC(C)N1CCC(N2CCCN(c3cccc(C(=O)NCC4CC4)n3)CC2)CC1` (stereo not shown) [Example 65, 6-{4-[1-(Butan-2-yl)piperidin-4-yl]-1,4-diazepan-1-yl}-N-(cyclopropylmethyl)pyridine-2-carboxamide] the figure was below 0.02 µM. Then `CCC(CC)N1CCC(N2CCCN(c3cccc(C(=O)NCC4CC4)n3)CC2)CC1` [Example 66, N-(Cyclopropylmethyl)-6-{4-[1-(pentan-3-yl)piperidin-4-yl]-1,4-diazepan-1-yl}pyridine-2-carboxamide], with 0.02 to 0.1 µM; and `CC(CF)N1CCC(N2CCCN(c3cccc(C(=O)NCC4CC4)n3)CC2)CC1` (stereo not shown) [Example 67, N-(Cyclopropylmethyl)-6-{4-[1-(1-fluoropropan-2-yl)piperidin-4-yl]-1,4-diazepan-1-yl}pyridine-2-carboxamide], with 0.5 to 1 µM. Consider `CC(C(F)F)N1CCC(N2CCCN(c3cccc(C(=O)NCC4CC4)n3)CC2)CC1` (stereo not shown) [Example 68, N-(Cyclopropylmethyl)-6-{4-[1-(1,1-difluoropropan-2-yl)piperidin-4-yl]-1,4-diazepan-1-yl}pyridine-2-carboxamide], for which the Ki lay within 0.1 to 0.5 µM.

Turning to `C[C@H](N1CCC(N2CCCN(c3cccc(C(=O)NCC4CC4)n3)CC2)CC1)C(F)(F)F` [Example 69, N-(Cyclopropylmethyl)-6-(4-{1-[(2S)-1,1,1-trifluoropropan-2-yl]piperidin-4-yl}-1,4-diazepan-1-yl)pyridine-2-carboxamide], the Ki was in the range of 0.1 to 0.5 µM. Turning to `CC(CC(F)(F)F)N1CCC(N2CCCN(c3cccc(C(=O)NCC4CC4)n3)CC2)CC1` (stereo not shown) [Example 70, N-(Cyclopropylmethyl)-6-{4-[1-(4,4,4-trifluorobutan-2-yl)piperidin-4-yl]-1,4-diazepan-1-yl}pyridine-2-carboxamide], the Ki lay within 0.02 to 0.1 µM. As for `COCCN1CCC(N2CCCN(c3cccc(C(=O)NCC4CC4)n3)CC2)CC1` [Example 71, N-(Cyclopropylmethyl)-6-{4-[1-(2-methoxyethyl)piperidin-4-yl]-1,4-diazepan-1-yl}pyridine-2-carboxamide], the Ki was 0.5 to 1 µM.
